The supplement of paper PMC6045584
± gives the standard deviation of the averaged measurements.

Assays:
[1] = compound: COc1cc(CCc2cc(NC(=O)c3ccc(N4CC(C)NC(C)C4)cc3)n[nH]2)cc(OC)c1 [AZD4547]; assay: surviving fraction relative to DMSO-only wells; higher = less growth inhibition; details: exposure time: 5 days
Procedure, shortened: (§1)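 Viability was scored with CellTiter-Glo luminescence and normalised to the median of DMSO-only wells as surviving fraction. Beforehand, log-phase tumour cell lines were seeded at 250–500 cells per well in 384-well plates, allowed 24 hours, and exposed continuously for five days to inhibitors at 0.5, 1, 5, 10, 50, 100, 500 and 1000 nM. Only lines whose three screens gave replicate Pearson r >0.7 and median Z' >0.3 were kept.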

[2] = compound: CCN(CC)CCNC(=O)c1c(C)[nH]c(/C=C2\C(=O)Nc3ccc(F)cc32)c1C [SUNITINIB]; assay: as above; details: exposure time: 5 days
Procedure, shortened: as §1

Test System | surviving fraction ([1]; 0.5 nM) | surviving fraction ([1]; 1 nM) | surviving fraction ([1]; 5 nM) | surviving fraction ([1]; 10 nM) | surviving fraction ([1]; 50 nM) | surviving fraction ([1]; 100 nM) | surviving fraction ([1]; 500 nM) | surviving fraction ([1]; 1000 nM) | surviving fraction ([2]; 1 nM) | surviving fraction ([2]; 5 nM) | surviving fraction ([2]; 10 nM) | surviving fraction ([2]; 50 nM) | surviving fraction ([2]; 100 nM) | surviving fraction ([2]; 500 nM) | surviving fraction ([2]; 1000 nM) | surviving fraction ([2]; 0.5 nM)
SKBR3 BREAST | 1.07 ± 0.14 | 1.2 ± 0.05 | 1.04 ± 0.079 | 1.09 ± 0.13 | 1.15 ± 0.13 | 1.26 ± 0.13 | 1.16 ± 0.18 | 1.11 ± 0.13 | 0.795 ± 0.073 | 0.738 ± 0.1 | 0.696 ± 0.12 | 0.875 ± 0.035 | 0.867 ± 0.084 | 0.64 ± 0.064 | 0.492 ± 0.014 | –
H23 LUNG | 0.965 ± 0.059 | 1.06 ± 0.052 | 1.03 ± 0.055 | 1.04 ± 0.02 | 1.01 ± 0.037 | 1.05 ± 0.028 | 0.979 ± 0.075 | 0.964 ± 0.066 | 0.918 ± 0.013 | – | 0.885 ± 0.045 | – | 0.829 ± 0.014 | 0.598 ± 0.06 | 0.368 ± 0.021 | 0.953 ± 0.023
SJSA1 BONE | 1.01 ± 0.028 | 1.08 ± 0.08 | 1.08 ± 0.076 | 1.09 ± 0.046 | 1.14 ± 0.036 | 1.06 ± 0.05 | 1.01 ± 0.041 | 0.975 ± 0.075 | 0.869 ± 0.017 | – | 0.872 ± 0.022 | 1.02 ± 0.038 | – | 0.8283 ± 0.0078 | 0.579 ± 0.011 | –
22RV1 PROSTATE | 1 ± 0.06 | 1.01 ± 0.059 | 1.02 ± 0.044 | 1.07 ± 0.056 | 0.998 ± 0.048 | 1.03 ± 0.053 | 1.1 ± 0.084 | 1.08 ± 0.082 | 0.952 ± 0.021 | – | – | 0.937 ± 0.1 | 0.932 ± 0.027 | 0.739 ± 0.049 | 0.41 ± 0.029 | 0.975 ± 0.028
HS578T BREAST | 0.986 ± 0.061 | 1.05 ± 0.06 | 1.04 ± 0.025 | 1.01 ± 0.04 | 0.966 ± 0.056 | 0.94 ± 0.036 | 0.871 ± 0.03 | 0.911 ± 0.039 | 0.824 ± 0.057 | – | 0.881 ± 0.049 | – | – | 0.871 ± 0.073 | 0.426 ± 0.054 | 0.838 ± 0.15
HOSMNG BONE | 1.01 ± 0.088 | 0.996 ± 0.12 | 1.02 ± 0.1 | 1.03 ± 0.035 | 0.964 ± 0.12 | 0.9967 ± 0.0029 | 0.945 ± 0.087 | 1.04 ± 0.097 | – | 0.969 ± 0.13 | – | 1.06 ± 0.12 | 0.999 ± 0.18 | 0.803 ± 0.072 | 0.44 ± 0.037 | 0.939 ± 0.1
SIHA CERVIX | 1.06 ± 0.037 | 1.08 ± 0.05 | 1.11 ± 0.066 | 0.985 ± 0.025 | 0.839 ± 0.079 | 0.895 ± 0.054 | 0.786 ± 0.06 | 0.785 ± 0.052 | – | 0.972 ± 0.04 | 0.984 ± 0.028 | 1.11 ± 0.047 | 1.02 ± 0.086 | 0.725 ± 0.026 | 0.418 ± 0.04 | 0.957 ± 0.088
143B BONE | 0.948 ± 0.096 | 1.011 ± 0.0042 | 1.04 ± 0.014 | 1.02 ± 0.067 | 0.921 ± 0.13 | 1.01 ± 0.06 | 0.994 ± 0.04 | 0.974 ± 0.1 | 1.01 ± 0.026 | 1.01 ± 0.022 | 1.02 ± 0.035 | 1.01 ± 0.019 | 1.008 ± 0.0042 | 0.824 ± 0.067 | 0.461 ± 0.055 | 0.982 ± 0.044
CASKI CERVIX | 0.927 ± 0.055 | 0.951 ± 0.033 | 1.01 ± 0.014 | 1.02 ± 0.073 | 0.961 ± 0.053 | 1.03 ± 0.048 | 0.805 ± 0.02 | 0.548 ± 0.019 | 0.731 ± 0.072 | 0.792 ± 0.052 | 0.763 ± 0.064 | 0.891 ± 0.088 | 0.717 ± 0.039 | 0.166 ± 0.0025 | 0.0627 ± 0.004 | 0.757 ± 0.041
DU4475 BREAST | 1.12 ± 0.37 | 0.979 ± 0.16 | 1.03 ± 0.27 | 0.998 ± 0.13 | 1.15 ± 0.3 | 1.08 ± 0.21 | 1.11 ± 0.21 | 1 ± 0.22 | 0.797 ± 0.12 | 0.716 ± 0.14 | 0.771 ± 0.18 | 0.668 ± 0.12 | 0.649 ± 0.21 | 0.428 ± 0.18 | 0.1 ± 0.029 | 0.742 ± 0.17
YAMATO SYNOVIAL | 1.19 ± 0.024 | 1.22 ± 0.074 | 1.25 ± 0.038 | 1.22 ± 0.046 | 1.16 ± 0.064 | 1.08 ± 0.045 | 0.911 ± 0.05 | 0.816 ± 0.048 | 0.392 ± 0.031 | 0.586 ± 0.058 | 0.0847 ± 0.0081 | – | 0.583 ± 0.021 | 0.588 ± 0.046 | 0.0633 ± 0.0023 | –
A549 LUNG | 0.984 ± 0.02 | 1.03 ± 0.064 | 1.01 ± 0.039 | 1.02 ± 0.069 | 0.9867 ± 0.0075 | 1.03 ± 0.066 | 0.983 ± 0.026 | 1.031 ± 0.007 | 0.907 ± 0.029 | 0.903 ± 0.013 | 0.89 ± 0.031 | 0.991 ± 0.026 | – | 1.04 ± 0.014 | 1.03 ± 0.02 | 0.922 ± 0.021
SUM149 BREAST | 0.989 ± 0.054 | 1.05 ± 0.11 | 1.08 ± 0.017 | 1 ± 0.034 | 1.04 ± 0.072 | 0.989 ± 0.05 | 1.02 ± 0.073 | 0.916 ± 0.047 | 0.755 ± 0.016 | 0.884 ± 0.052 | 0.213 ± 0.016 | 0.906 ± 0.061 | 0.756 ± 0.039 | 0.619 ± 0.017 | 0.176 ± 0.01 | 0.797 ± 0.036
MCF7 BREAST | 0.925 ± 0.062 | 0.918 ± 0.038 | 0.948 ± 0.074 | 0.931 ± 0.036 | 1 ± 0.069 | 0.9181 ± 0.0017 | 0.921 ± 0.066 | 0.924 ± 0.063 | 0.822 ± 0.023 | 0.8113 ± 0.0079 | 0.706 ± 0.0095 | – | 0.842 ± 0.015 | 0.751 ± 0.012 | 0.607 ± 0.015 | 0.786 ± 0.02
MDAMB361 BREAST | 0.908 ± 0.033 | 0.925 ± 0.028 | 1.04 ± 0.12 | 0.972 ± 0.064 | 0.967 ± 0.067 | 0.993 ± 0.061 | 0.851 ± 0.035 | 0.76 ± 0.052 | 0.717 ± 0.023 | 0.696 ± 0.058 | 0.651 ± 0.025 | 0.82 ± 0.069 | – | 0.8 ± 0.011 | 0.527 ± 0.054 | 0.683 ± 0.049
SG28 HEADNECK | 0.977 ± 0.13 | 1.14 ± 0.023 | 1.07 ± 0.093 | 0.982 ± 0.026 | 0.959 ± 0.048 | 1.04 ± 0.087 | 1.01 ± 0.077 | 0.706 ± 0.057 | 0.789 ± 0.051 | 0.807 ± 0.086 | 0.313 ± 0.042 | 0.893 ± 0.14 | 0.725 ± 0.044 | 0.4727 ± 0.0046 | 0.124 ± 0.017 | 0.913 ± 0.11
SCC47 HEADNECK | 0.967 ± 0.14 | 1.02 ± 0.066 | 1.02 ± 0.1 | 1.13 ± 0.069 | 1.08 ± 0.037 | 1.09 ± 0.091 | 1.03 ± 0.078 | 0.961 ± 0.074 | 0.9 ± 0.059 | – | – | 1.02 ± 0.016 | – | 0.726 ± 0.022 | 0.502 ± 0.041 | 0.886 ± 0.019
SUM159 BREAST | 1.16 ± 0.24 | 1.19 ± 0.22 | 1.15 ± 0.2 | 1.2 ± 0.23 | 1.15 ± 0.2 | 1.14 ± 0.2 | 1.22 ± 0.27 | 1.1 ± 0.15 | 0.9683 ± 0.0076 | – | 0.927 ± 0.06 | 0.914 ± 0.12 | – | 0.839 ± 0.13 | 0.548 ± 0.11 | –
